Tests used:
[1] = target: T1, HCV polymerase (NS5B570n-Con1) (Hepatitis C virus genotype 1b, UniProt Q9WMX2); test: HCV NS5B RNA Polymerase Activity; format: biochemical, HCV Con1 strain
T1 construct: contains a 21 amino acid deletion at the C-terminus relative to the full-length HCV polymerase; 6-histidine (N); made in house; host or cells: E. coli BL21(DE) pLysS, plasmid pET 17b
Protocol: The enzymatic activity of HCV polymerase (NS5B570n-Con1) was measured as the incorporation of radiolabeled nucleotide monophosphates into acid insoluble RNA products. Unincorporated radiolabeled substrate was removed by filtration and scintillant was added to the washed and dried filter plate containing radiolabeled RNA product. The amount of RNA product generated by NS5B570-Con1 at the end of the reaction was directly proportional to the amount of light emitted by the scintillant.
The N-terminal 6-histidine tagged HCV polymerase, derived from HCV Con1 strain, genotype 1b (NS5B570n-Con1) contains a 21 amino acid deletion at the C-terminus relative to the full-length HCV polymerase and was purified from E. coli strain BL21(DE) pLysS. The construct, containing the coding sequence of HCV NS5B Con1 (GenBank accession number AJ242654) was inserted into the plasmid construct pET 17b, downstream of a T7 promoter expression cassette and transformed into E. coli. A single colony was grown overnight as a starter culture and later used inoculate 10 L of LB media supplemented with 100 μg/mL ampicillin at 37° C. Protein expression was induced by the addition of 0.25 mM isopropyl-β-D-thiogalactopyranoside (IPTG) when optical density at […] of the culture was between 0.6 and 0.8 and cells were harvested after 16 to 18 h at 30° C. NS5B570n-Con1 was purified to homogeneity using a three-step protocol including subsequent column chromatography on Ni-NTA, SP-Sepharose HP and Superdex 75 resins.
Each 50 μL enzymatic reaction contained 20 nM RNA template derived from the complementary sequence of the Internal Ribosome Entry Site (cIRES), 20 nM NS5B570n-Con1 enzyme, 0.5 μCi of tritiated UTP (Perkin Elmer catalog no. TRK-412; specific activity: 30 to 60 Ci/mmol; stock solution concentration from 7.5×10^−5 M to 20.6×10^−6 M), 1 μM each ATP, CTP, and GTP, 40 mM Tris-HCl pH 8.0, 40 mM NaCl, 4 mM DTT (dithiothreitol), 4 mM MgCl2, and 5 μl of compound serial diluted in DMSO. Reaction mixtures were assembled in 96-well filter plates (cat #MADVN0B, Millipore Co.) and incubated for 2 h at 30° C. Reactions were stopped by addition of 10% final (v/v) trichloroacetic acid and incubated for 40 min at 4° C. Reactions were filtered, washed with 8 reaction volumes of 10% (v/v) trichloroacetic acetic acid, 4 reaction volumes of 70% (v/v) ethanol, air dried, and 25 μl of scintillant (Microscint 20, Perkin-Elmer) was added to each reaction well.
The amount of light emitted from the scintillant was converted to counts per minute (CPM) on a Topcount® plate reader (Perkin-Elmer, Energy Range: Low, Efficiency Mode Normal, Count Time: 1 min, Background Subtract: none, Cross talk reduction: Off).
Data was analyzed in Excel® (Microsoft) and ActivityBase® (Idbs®). The reaction in the absence of enzyme was used to determine the background signal, which was subtracted from the enzymatic reactions. Positive control reactions were performed in the absence of compound, from which the background corrected activity was set as 100% polymerase activity. All data was expressed as a percentage of the positive control. The compound concentration at which the enzyme-catalyzed rate of RNA synthesis was reduced by 50% (IC50) was calculated by fitting equation (i) to the data where“Y”
[formula] corresponds to the relative enzyme activity (in %), “% Min” is the residual relative activity at saturating compound concentration, “% Max” is the relative maximum enzymatic activity, “X” corresponds to the compound concentration, and “S” is the Hill coefficient (or slope).

[2] = tested on: HCV replicon cells (2209-23), genotype 1b replicon; test: HCV Replicon Assay (Renilla luciferase reporter); format: cell-based, HCV genotype 1b; conditions: Hepatitis C virus, 72 h; cell line 2209-23, luciferase activity after three days

| Compound | IC50 [1] [nM] | melting point [°C] | IC50 [2] [nM] |
| --- | --- | --- | --- |
| CC(C)(C)c1cc(-c2cc(F)c[nH]c2=O)c2ncc(N3CCC(NS(C)(=O)=O)CC3)nc2c1 [Compound I-5] | 817 | 224 to 226 |  |
| COc1nc2c(-c3ccc[nH]c3=O)cc(C(C)(C)C)cc2cc1-c1ccc(NS(C)(=O)=O)cc1 [Compound I-1, N-{4-[6-tert-Butyl-2-methoxy-8-(2-oxo-1,2-dihydro-pyridin-3-yl)-quinolin-3-yl]-phenyl}-methanesulfonamide] | 8 | 274 to 276 |  |
| CC(C)(C)c1cc(-c2ccc[nH]c2=O)c2ncc(N3CCC(NS(C)(=O)=O)CC3)nc2c1 |  | 275 to 280 |  |
| Cc1ccc(-c2nc(C(C)(C)C)cc3cc(-c4ccc(NS(C)(=O)=O)cc4)ccc23)c(=O)[nH]1 [Compound I-48, N-{4-[3-tert-Butyl-1-(6-methyl-2-oxo-1,2-dihydro-pyridin-3-yl)-isoquinolin-6-yl]-phenyl}-methanesulfonamide] |  |  | 27.4 |
| CC(C)(C)c1cc(-c2cc(F)c[nH]c2=O)c2ncc(-c3ccc(NS(C)(=O)=O)cc3)nc2c1 [Compound I-2, N-{4-[7-tert-Butyl-5-(5-fluoro-2-oxo-1,2-dihydro-pyridin-3-yl)-quinoxalin-2-yl]-phenyl}-methanesulfonamide] | 31 | > 300 |  |
| CC(C)(C)c1cc(-c2ccc[nH]c2=O)c2ncc(-c3ccc(NS(C)(=O)=O)cc3)nc2c1 [Compound I-6, N-{4-[7-tert-Butyl-5-(2-oxo-1,2-dihydro-pyridin-3-yl)-quinoxalin-2-yl]-phenyl}-methanesulfonamide] | 1 | 260 to 263 |  |
| CC(C)(C)c1cc(-c2ccc[nH]c2=O)c2ncc(-c3ccc(NS(C)(=O)=O)cc3Cl)nc2c1 [Compound I-7] | 3 | 275 to 278 |  |
| CC(C)(C)c1cc(-c2cc(F)c[nH]c2=O)c2ncc(N3CC[C@H](CNS(C)(=O)=O)C3)nc2c1 [Compound I-4, N-{(S)-1-[7-tert-Butyl-5-(5-fluoro-2-oxo-1,2-dihydro-pyridin-3-yl)-quinoxalin-2-yl]-pyrrolidin-3-ylmethyl}-methanesulfonamide] | 191 | 170 to 175 |  |
| CC(C)(C)c1cc(-c2cc(F)c[nH]c2=O)c2ncc(-c3ccc(NS(C)(=O)=O)cc3)cc2c1 [Compound I-12] |  | 208 to 210 |  |
| CC(C)(C)c1cc(-c2cc(F)c[nH]c2=O)c2ncc(N3CCC(NS(C)(=O)=O)CC3)cc2c1 [Compound I-13, N-{1-[6-tert-Butyl-8-(5-fluoro-2-oxo-1,2-dihydro-pyridin-3-yl)-quinolin-3-yl]-piperidin-4-yl}-methanesulfonamide] | 64 | 186 to 188 |  |
| COc1ccc(-c2cc(C(C)(C)C)cc3cc(N4CC[C@H](CNS(C)(=O)=O)C4)cnc23)c(=O)[nH]1 [Compound I-60, N-{(S)-1-[6-tert-Butyl-8-(6-methoxy-2-oxo-1,2-dihydro-pyridin-3-yl)-quinolin-3-yl]-pyrrolidin-3-ylmethyl}-methanesulfonamide] |  |  | 81.8 |
| COc1c(C(C)(C)C)cc(-c2ccc(CO)[nH]c2=O)c2ncc(-c3ccc(NS(C)(=O)=O)cc3)cc12 [Compound I-41, N-{4-[6-tert-Butyl-8-(6-hydroxymethyl-2-oxo-1,2-dihydro-pyridin-3-yl)-5-methoxy-quinolin-3-yl]-phenyl}-methanesulfonamide] | 0.2 | 293 to 295 |  |
| COc1c(C(C)(C)C)cc(-c2cc(Cl)c[nH]c2=O)c2ncc(-c3ccc(NS(C)(=O)=O)cc3)cc12 [Compound I-15, N-{4-[6-tert-Butyl-8-(5-chloro-2-oxo-1,2-dihydro-pyridin-3-yl)-5-methoxy-quinolin-3-yl]-phenyl}-methanesulfonamide] | 1 |  |  |
| COc1c(CC(F)(F)F)cc(-n2ccc(=O)[nH]c2=O)c2ncc(-c3ccc(NS(C)(=O)=O)cc3)cc12 [Compound I-56, N-{4-[8-(2,4-Dioxo-3,4-dihydro-2H-pyrimidin-1-yl)-5-methoxy-6-(2,2,2-trifluoro-ethyl)-quinolin-3-yl]-phenyl}-methanesulfonamide] | 38.5 |  |  |
| COc1c(C(C)(C)C)cc(-c2ccncc2F)c2ncc(-c3ccc(NS(C)(=O)=O)cc3)cc12 [Compound I-26] | 1 |  |  |
| COc1c(C(F)(F)F)cc(-n2ccc(=O)[nH]c2=O)c2ncc(-c3ccc(NS(C)(=O)=O)cc3)cc12 [Compound I-51, N-{4-[8-(2,4-Dioxo-3,4-dihydro-2H-pyrimidin-1-yl)-5-methoxy-6-trifluoromethyl-quinolin-3-yl]-phenyl}-methanesulfonamide] | 3.8 |  |  |
| COc1c(C(C)(C)C)cc(-c2ccc[nH]c2=O)c2ncc(Br)cc12 [Compound I-16] | 59 |  |  |
| COc1c(CC(F)(F)F)cc(N2CCC(=O)NC2=O)c2ncc(-c3ccc(NS(C)(=O)=O)cc3)cc12 [Compound I-30, N-{4-[8-(Dioxo-tetrahydro-pyrimidin-1-yl)-5-methoxy-6-(2,2,2-trifluoro-ethyl)-quinolin-3-yl]-phenyl}-methanesulfonamide] | 17 |  |  |
| COc1ccc(-c2cc(C3(C(F)F)CC3)c(OC)c3cc(-c4ccc(NS(C)(=O)=O)cc4)cnc23)c(=O)[nH]1 [Compound I-38] | 0.6 |  |  |
| COc1c(C(C)(C)C)cc(Br)c2ncc(-c3ccc(NS(C)(=O)=O)cc3)cc12 [Compound I-20] | 225 |  |  |
| COc1[nH]c(=O)c(-c2cc(C(C)(C)C)c(OC)c3cc(-c4ccc(NS(C)(=O)=O)cc4)cnc23)cc1F [Compound I-47, N-{4-[6-tert-Butyl-8-(5-fluoro-6-methoxy-2-oxo-1,2-dihydro-pyridin-3-yl)-5-methoxy-quinolin-3-yl]-phenyl}-methanesulfonamide] | 12.8 |  |  |
| COc1c(C(C)(C)C)cc(-c2ccc[nH]c2=O)c2ncc(N3CC(CNS(C)(=O)=O)C3)cc12 [Compound I-19, N-{1-[6-tert-Butyl-5-methoxy-8-(2-oxo-1,2-dihydro-pyridin-3-yl)-quinolin-3-yl]-azetidin-3-ylmethyl}-methanesulfonamide] | 3 | 177 to 180 |  |
| COc1ccc(-c2cc(C(C)(C)C)cc3cc(-c4ccc(NS(C)(=O)=O)cc4)cnc23)c(=O)[nH]1 [Compound I-58] | 6 |  |  |
| COc1c(C(C)(C)C)cc(-c2cc(F)c[nH]c2=O)c2ncc(-c3ccc(NS(C)(=O)=O)cc3)cc12 [Compound I-23] | 1 |  |  |
| COc1ccc(-c2cc(CC(F)(F)F)c(OC)c3cc(-c4ccc(NS(C)(=O)=O)cc4)cnc23)c(=O)[nH]1 [Compound I-54, N-{4-[5-Methoxy-8-(6-methoxy-2-oxo-1,2-dihydro-pyridin-3-yl)-6-(2,2,2-trifluoro-ethyl)-quinolin-3-yl]-phenyl}-methanesulfonamide] | 2.2 |  |  |
| COc1c(C(C)(C)C)cc(-c2cc(Cl)c(C)[nH]c2=O)c2ncc(-c3ccc(NS(C)(=O)=O)cc3)cc12 [Compound I-42, N-{4-[6-tert-Butyl-8-(5-chloro-6-methyl-2-oxo-1,2-dihydro-pyridin-3-yl)-5-methoxy-quinolin-3-yl]-phenyl}-methanesulfonamide] | 0.6 |  |  |
| COc1c(C(C)(C)C)cc(-c2ccc(C)[nH]c2=O)c2ncc(-c3ccc(NS(C)(=O)=O)cc3)cc12 [Compound I-24] | 1 |  |  |
